Assay results published in patent publication EP4635500A1, “THERAPEUTIC AGENT FOR BACTERIAL INFECTION” (Sumitomo Pharma Co., Ltd., priority 2022, dated 2024).
Values after ≈ are worked out from the molar mass of the structure shown. Where two headings read alike, the source gives them in different places.

Tests used:
[1] = tested on: 53 CRE and CPE strains; assay: MICrange, MIC50, MIC80, MIC90 for 53 bacterial isolates (Example 5, Table 5); format: cell-based
[2] = tested on: P. aeruginosa; assay: MIC, broth microdilution, CDC/FDA Antibiotic Resistance Isolate Bank (Example 7, Tables 10, 15); format: cell-based; settings: for MIC: read-out: MIC
[3] = Pseudomonas aeruginosa, 96 strains of P. aeruginosa

In the case of `C[C@@H](O)[C@H]1C(=O)N2C(C(=O)O)=C(S[C@@H]3CN[C@H](C(=O)N(C)C)C3)[C@H](C)[C@H]12` [MEPM, meropenem], the MIC50 ([1]; 53 CRE and CPE strains, read-out: MIC50) is reported as 4 µg/mL (≈ 10.4 µM), the MIC80 ([1]; 53 CRE and CPE strains, read-out: MIC80) is reported as 16 µg/mL (≈ 41.7 µM) and the MIC90 ([1]; 53 CRE and CPE strains, read-out: MIC90) is reported as 64 µg/mL (≈ 167 µM). For the same molecule, the MIC50 ([1]; 53 bacterial isolates) was 4 µg/mL (≈ 10.4 µM), the MIC80 ([1]; 53 bacterial isolates) was 16 µg/mL (≈ 41.7 µM) and the MIC90 ([1]; 53 bacterial isolates) was 64 µg/mL (≈ 167 µM). For the same molecule, the MICrange ([1]; 53 bacterial isolates) was 0.06 to 256 µg/mL, the “MIC against 96 strains of P. aeruginosa MIC50” value ([2]; 96 strains of P. aeruginosa, β-lactamase inhibitor µg/mL in parentheses) was 16 µg(mL) and the MIC ([2]; Pseudomonas aeruginosa, KUB No. 57 (continued 90 in the 40th table r2), AR Bank #44 (continued 5), no carbapenemase gene) was 64 µg/mL (≈ 167 µM). For the same molecule, the MIC ([2]; Pseudomonas aeruginosa, KUB No. 5587, AR Bank #90, KPC-5) was 32 µg/mL (≈ 83.4 µM), the MIC ([2]; Pseudomonas aeruginosa, KUB No. 5591, AR Bank #94, no carbapenemase gene) was 16 µg/mL (≈ 41.7 µM) and the MIC ([2]; Pseudomonas aeruginosa, KUB No. 5592, AR Bank #95, no carbapenemase gene) was 8 µg/mL (≈ 20.9 µM). It also gave an MIC ([2]; Pseudomonas aeruginosa, KUB No. 5607, AR Bank #110, VIM-2) of 64 µg/mL (≈ 167 µM), an MIC ([2]; Pseudomonas aeruginosa, KUB No. 5608, AR Bank #111, VIM-2) of 32 µg/mL (≈ 83.4 µM) and an MIC ([2]; Pseudomonas aeruginosa, KUB No. 5662, AR Bank #229, no carbapenemase gene) of 32 µg/mL (≈ 83.4 µM). For the same molecule, the MIC ([2]; Pseudomonas aeruginosa, KUB No. 5663, AR Bank #230, VIM-2) was 64 µg/mL (≈ 167 µM), the MIC ([2]; Pseudomonas aeruginosa, KUB No. 5666, AR Bank #233, no carbapenemase gene) was 16 µg/mL (≈ 41.7 µM) and the MIC ([2]; Pseudomonas aeruginosa, KUB No. 5667, AR Bank #234, no carbapenemase gene) was 2 µg/mL (≈ 5.22 µM). For the same molecule, the MIC ([2]; Pseudomonas aeruginosa, KUB No. 5668, AR Bank #235, no carbapenemase gene) was 16 µg/mL (≈ 41.7 µM), the MIC ([2]; Pseudomonas aeruginosa, KUB No. 5669, AR Bank #236, no carbapenemase gene) was 2 µg/mL (≈ 5.22 µM) and the MIC ([2]; Pseudomonas aeruginosa, KUB No. 5670, AR Bank #237, no carbapenemase gene) was 2 µg/mL (≈ 5.22 µM). For the same molecule, the MIC ([2]; Pseudomonas aeruginosa, KUB No. 5671, AR Bank #238, no carbapenemase gene) was no more than 0.25 µg/mL, the MIC ([2]; Pseudomonas aeruginosa, KUB No. 5672, AR Bank #239, GES-1, VIM-11) was 64 µg/mL (≈ 167 µM) and the MIC ([2]; Pseudomonas aeruginosa, KUB No. 5676, AR Bank #243, VIM-2) was 8 µg/mL (≈ 20.9 µM). The MIC ([2]; Pseudomonas aeruginosa, KUB No. 5677, AR Bank #244, no carbapenemase gene) was 16 µg/mL (≈ 41.7 µM), the MIC ([2]; Pseudomonas aeruginosa, KUB No. 5678, AR Bank #245, VIM-2) was 8 µg/mL (≈ 20.9 µM) and the MIC ([2]; Pseudomonas aeruginosa, KUB No. 5684, AR Bank #251, no carbapenemase gene) was 1 µg/mL (≈ 2.61 µM). For the same molecule, the MIC ([2]; Pseudomonas aeruginosa, KUB No. 5685, AR Bank #252, no carbapenemase gene) was 2 µg/mL (≈ 5.22 µM), the MIC ([2]; Pseudomonas aeruginosa, KUB No. 5686, AR Bank #253, no carbapenemase gene) was 0.5 µg/mL (≈ 1.3 µM) and the MIC ([2]; Pseudomonas aeruginosa, KUB No. 5687, AR Bank #254, VIM-2) was 64 µg/mL (≈ 167 µM). It also gave an MIC ([2]; Pseudomonas aeruginosa, KUB No. 5689, AR Bank #256, no carbapenemase gene) of 2 µg/mL (≈ 5.22 µM), an MIC ([2]; Pseudomonas aeruginosa, KUB No. 5691, AR Bank #258, no carbapenemase gene) of 2 µg/mL (≈ 5.22 µM) and an MIC ([2]; Pseudomonas aeruginosa, KUB No. 5692, AR Bank #259, no carbapenemase gene) of 0.5 µg/mL (≈ 1.3 µM). For the same molecule, the MIC ([2]; Pseudomonas aeruginosa, KUB No. 5694, AR Bank #261, no carbapenemase gene) was 0.5 µg/mL (≈ 1.3 µM), the MIC ([2]; Pseudomonas aeruginosa, KUB No. 5695, AR Bank #262, no carbapenemase gene) was 0.5 µg/mL (≈ 1.3 µM) and the MIC ([2]; Pseudomonas aeruginosa, KUB No. 5696, AR Bank #263, no carbapenemase gene) was no more than 0.25 µg/mL. The MIC ([2]; Pseudomonas aeruginosa, KUB No. 5697, AR Bank #264, no carbapenemase gene) was 2 µg/mL (≈ 5.22 µM), the MIC ([2]; Pseudomonas aeruginosa, KUB No. 5698, AR Bank #265, no carbapenemase gene) was 8 µg/mL (≈ 20.9 µM) and the MIC ([2]; Pseudomonas aeruginosa, KUB No. 5699, AR Bank #266, no carbapenemase gene) was 8 µg/mL (≈ 20.9 µM). It also gave an MIC ([2]; Pseudomonas aeruginosa, KUB No. 5700, AR Bank #267, no carbapenemase gene) of 2 µg/mL (≈ 5.22 µM), an MIC ([2]; Pseudomonas aeruginosa, KUB No. 5701, AR Bank #268, no carbapenemase gene) of 16 µg/mL (≈ 41.7 µM) and an MIC ([2]; Pseudomonas aeruginosa, KUB No. 5702, AR Bank #269, no carbapenemase gene) of 8 µg/mL (≈ 20.9 µM). The MIC ([2]; Pseudomonas aeruginosa, KUB No. 5703, AR Bank #270, no carbapenemase gene) was 2 µg/mL (≈ 5.22 µM), the MIC ([2]; Pseudomonas aeruginosa, KUB No. 5704, AR Bank #271, no carbapenemase gene) was 8 µg/mL (≈ 20.9 µM) and the MIC ([2]; Pseudomonas aeruginosa, KUB No. 5705, AR Bank #272, no carbapenemase gene) was 2 µg/mL (≈ 5.22 µM). The MIC ([2]; Pseudomonas aeruginosa, KUB No. 5747, AR Bank #351, no carbapenemase gene) was 16 µg/mL (≈ 41.7 µM), the MIC ([2]; Pseudomonas aeruginosa, KUB No. 5749, AR Bank #353, GES-1) was 16 µg/mL (≈ 41.7 µM) and the MIC ([2]; Pseudomonas aeruginosa, KUB No. 5751, AR Bank #355, no carbapenemase gene) was 8 µg/mL (≈ 20.9 µM). For the same molecule, the MIC ([2]; Pseudomonas aeruginosa, KUB No. 5752, AR Bank #356, KPC-2) was 32 µg/mL (≈ 83.4 µM), the MIC ([2]; Pseudomonas aeruginosa, KUB No. 5754, AR Bank #358, no carbapenemase gene) was 8 µg/mL (≈ 20.9 µM) and the MIC ([2]; Pseudomonas aeruginosa, KUB No. 5755, AR Bank #359, no carbapenemase gene) was 8 µg/mL (≈ 20.9 µM). The MIC ([2]; Pseudomonas aeruginosa, KUB No. 5756, AR Bank #360, no carbapenemase gene) was 16 µg/mL (≈ 41.7 µM), the MIC ([2]; Pseudomonas aeruginosa, KUB No. 5785, AR Bank #439, IMP-18) was 64 µg/mL (≈ 167 µM) and the MIC ([2]; Pseudomonas aeruginosa, KUB No. 5786, AR Bank #440, no carbapenemase gene) was 8 µg/mL (≈ 20.9 µM). The MIC ([2]; Pseudomonas aeruginosa, KUB No. 5787, AR Bank #441, KPC-2) was 32 µg/mL (≈ 83.4 µM), the MIC ([2]; Pseudomonas aeruginosa, KUB No. 5788, AR Bank #443, no carbapenemase gene) was 16 µg/mL (≈ 41.7 µM) and the MIC ([2]; Pseudomonas aeruginosa, KUB No. 5791, AR Bank #447, no carbapenemase gene) was 2 µg/mL (≈ 5.22 µM). The MIC ([2]; Pseudomonas aeruginosa, KUB No. 5793, AR Bank #449, no carbapenemase gene) was 16 µg/mL (≈ 41.7 µM), the MIC ([2]; Pseudomonas aeruginosa, KUB No. 5798, AR Bank #455, no carbapenemase gene) was 16 µg/mL (≈ 41.7 µM) and the MIC ([2]; Pseudomonas aeruginosa, KUB No. 5799, AR Bank #456, no carbapenemase gene) was 64 µg/mL (≈ 167 µM). It also gave an MIC ([2]; Pseudomonas aeruginosa, KUB No. 5801, AR Bank #458, no carbapenemase gene) of 1 µg/mL (≈ 2.61 µM), an MIC ([2]; Pseudomonas aeruginosa, KUB No. 5802, AR Bank #459, no carbapenemase gene) of 16 µg/mL (≈ 41.7 µM) and an MIC ([2]; Pseudomonas aeruginosa, KUB No. 5804, AR Bank #862, no carbapenemase gene) of 8 µg/mL (≈ 20.9 µM). The MIC ([2]; Pseudomonas aeruginosa, KUB No. 5806, AR Bank #864, no carbapenemase gene) was 64 µg/mL (≈ 167 µM), the MIC ([2]; Pseudomonas aeruginosa, KUB No. 5813, AR Bank #508, no carbapenemase gene) was 16 µg/mL (≈ 41.7 µM) and the MIC ([2]; Pseudomonas aeruginosa, KUB No. 5815, AR Bank #510, no carbapenemase gene) was 0.5 µg/mL (≈ 1.3 µM). The MIC ([2]; Pseudomonas aeruginosa, KUB No. 5817, AR Bank #512, no carbapenemase gene) was 16 µg/mL (≈ 41.7 µM), the MIC ([2]; Pseudomonas aeruginosa, KUB No. 5818, AR Bank #513, no carbapenemase gene) was 32 µg/mL (≈ 83.4 µM) and the MIC ([2]; Pseudomonas aeruginosa, KUB No. 5820, AR Bank #515, no carbapenemase gene) was 32 µg/mL (≈ 83.4 µM). The MIC ([2]; Pseudomonas aeruginosa, KUB No. 5821, AR Bank #516, KPC-2) was 64 µg/mL (≈ 167 µM), the MIC ([2]; Pseudomonas aeruginosa, KUB No. 5831, AR Bank #526, no carbapenemase gene) was 8 µg/mL (≈ 20.9 µM) and the MIC ([2]; Pseudomonas aeruginosa, KUB No. 5832, AR Bank #527, no carbapenemase gene) was 16 µg/mL (≈ 41.7 µM). It also gave an MIC ([2]; Pseudomonas aeruginosa, KUB No. 5833, AR Bank #528, no carbapenemase gene) of 8 µg/mL (≈ 20.9 µM), an MIC ([2]; Pseudomonas aeruginosa, KUB No. 5834, AR Bank #529, no carbapenemase gene) of 8 µg/mL (≈ 20.9 µM) and an MIC50 [2, 3] of 16 µg/mL (≈ 41.7 µM). The MIC80 [2, 3] was 64 µg/mL (≈ 167 µM).
